# Tests used:
# [1] = test system: acute liver damage induced by carbon tetrachloride; experiment: Protective Effect on Acute Liver Damage associated with Centrilobular Necrosis (carbon tetrachloride); type: in vivo, mice (dd-strain); conditions: 250 mg/kg oral, average of 5 to 6 mice; for Liver damage index: 6 h before CCl4 (0.05 ml/kg oral), score 0 Normal, 2 slight, 4 clear, 6 heavy damage; for p-GPT (plasma glutamic-pyruvic transaminase activity): 6 h before CCl4, 24 h after CCl4, values over 1,000 regarded as 1,000
# Text: Carbon tetrachloride (CCl4) administration induces centrilobular necrosis of the liver associated with loss of diphosphopyridine nucleotide, hepatic glycogen, coenzyme A and increase in neutral fat. Release of several enzymes from the hepatocytes, and increase of enzyme activities in the plasma are recognized as the result of the damage of the liver. A suitable means for evaluating the degree of damage induced by CCl4 or the degree of protection afforded by drugs is to study the plasma glutamic-pyruvic transminase (p-GPT) activity.
# Methods: The test compounds were dissolved or suspended in olive oil and administered orally at the dose of 250 mg/kg to the mice (Four-week-old male mice-dd strain). After 6 hours, CCl4 was administered orally (0.05 ml/kg as olive oil solution). Animals were killed 24 hours after CCl4 administration, and the liver was grossly observed. The plasma was obtained by centrifugation. Activities of p-GPT were determined by the method of Reitman and Frankel and expressed in Karmen units.
# Score for liver damage index was as follows:
# 4 Clearly observable damage
# Each figure indicates average of 5 to 6 mice. Values of p-GPT over 1,000 Karmen unit regarded as 1,000 for calculation of average for convenience.
# [2] = test system: fatty liver induced by carbon tetrachloride; experiment: Therapeutic Effect on Fatty Liver (carbon tetrachloride); type: in vivo, rats (SD strain)
# Description: Methods: […] The treated animals were left for 3 days after the last administration to maximize the manifestation of fatty liver. […] It was orally given everyday for 10 days at the dose of 50 or 250 mg/kg. On the 11th day, the animals were sacrificed. The therapeutic effect was evaluated by determining the content of liquid in the liver (triglyceride and total lipid) and examining the histopathological changes. Triglyceride and total lipid were determined colorimetrically by chromotropic acid method and Bragdon's oxidation method, respectively. Indices for the histopathological change is as follows: […]
# [3] = test system: fatty liver induced by ethionine; experiment: Effect on Fatty Liver (ethionine); type: in vivo, mouse (dd-strain); conditions: 24 h, 10 animals
# Text: But, the fatty liver is grouped into a couple of patterns from the mechanism of lipid accumulation or metabolism of lipoprotein in the liver. Ethionine is a typical example which induces first pattern of fatty liver. It inhibits RNA and protein synthesis and destructs polysome of the liver cell. Fatty liver is induced by inhibition of the protein synthesis and disturbance of lipoprotein secretion.
# Usually, fatty liver is closely related to the accumulation of triglyceride in the liver. In the present example, the degree of fatty liver and protective or therapeutic effect against the fatty liver was evaluated by measurement of triglyceride content in the liver. Methods:
# The compounds of this invention and methionine were independently dissolved or suspended into olive oil and administered orally to 4 week-old male mouse (dd-strain) at the dose of 250 mg/kg. One hour before it, simultaneously to it, or one hour after it, ethionine dissolved in equimolar NaOH solution was administered intraperitoneally at the dose of 200 mg/kg. Twenty four hours after the administration of ethionine, the animals were sacrificed and triglyceride content in the liver was determined by chromotropic acid method.
# [4] = test system: excretion of biliary salt; experiment: Cholagogic Action: effect on the excretion of biliary salt; type: in vivo, rats (SD-JCL strain); conditions: 200 mg/kg oral, before treatment = 100
# Description: (§1) Drugs as choleresis are used for patients to improve bile flow. In the present example, the effect of the compound of the invention on the quantities of bile and biliary salt is investigated. Methods:
# (§2) The male rats (4 week-aged, SD-JCL strain) were anesthetized with sodium pentobarbital (37.5 mg/kg, intraperitoneal injection). The abdominal cavity was opened through a midline incision. The common bile duct was catheterized with polyethylene tube o.d. 0.8 mm. The catheter was brought to the outside through the abdominal incision would prior to closing. Bile was collected from the catheter continuously with time intervals of one hour. The quantity of bile produced in one hour was determined by weighing and that of biliary salt was determined by enzymatic method (Ikagaku Jikkenho Koza 1B, Biological Constituents II, edited by Tamio YAMAKAWA). The amount of biliary salt was represented in the term of cholic acid equivalent.
# (§3) In the representation of the results, the quantities of bile and biliary salt produced in one hour prior to the administration of drug were taken as 100. The compound of this invention was orally administered at the dose of 200 mg/kg. As reference, anethol trithion was used.
# bile flow = experiment: Cholagogic Action: effect on bile flow; type: in vivo, rats (SD-JCL strain); conditions: 200 mg/kg oral; for Bile flow: before treatment = 100
# Description: as §1, §2, §3
# [5] = test system: acute hepatitis induced by D-galactosamine; experiment: Protective Effect on Acute Hepatitis associated with Mesenchymal Reaction and Discrete Lobular Necrosis (D-galactosamine); type: in vivo, rat (SD strain); conditions: 100 mg/kg oral, 6 h before D-galactosamine 600 mg/kg i.p. (+ 300 mg/kg)
# Description: D-Galactosamine is a compound which induces a discrete lobular necrosis associated with mesenchymal reaction similar to the change observed in human viral hepatitis, so that it is frequently used in producing a model for viral hepatitis.
# The compound of this invention or anethol trithion was administered orally to the male rat (SD strain) at the dose of 100 mg/kg. Six hours after it, D-galactosamine was intraperitoneally administered at the dose of 600 mg/kg. Four hours after it, an additional 300 mg/kg was administered intraperitoneally. Eight hours after it, the animals were sacrificed to collect the blood samples. P-GPT activity and triglyceride in the liver were measured to evaluate the effect of the compound of this invention.
# [6] = test system: acute liver damage induced by allyl alcohol; experiment: Protective Effect on Acute Liver Damage associated with Periportal Necrosis (allyl alcohol), BSP test; type: in vivo, mouse (dd-strain); conditions: 100 mg/kg oral, 6 h before allyl alcohol (0.075 mg/kg oral); 24 h
# Description: The compund of this invention or anethol trithion was orally administered to the male mouse (4 week-old, dd-strain) at the dose of 100 mg/kg. Six hours after it, allyl alcohol was orally administered at the dose of 0.075 mg/kg. Twenty four hours after it, the animals were sacrificed to collect blood samples.
# [7] = test system: chronic liver damage induced by thioacetamide; experiment: Therapeutic Effect on Chronic Liver Damage (thioacetamide), BSP test; type: in vivo, rats (Spraque Dawley strain); conditions: normal diet + 0.2% of compound after 12 times TAA 100 mg/kg
# Description: In the tests of this Example, TAA was repeatedly administered to animals to prepare test animals suffering from somewhat chronic liver damages, and then the present compounds were administered thereto to know whether or not the compounds were effective against chronic hepatitis.
# The degree of the liver damage and the therapeutic effects of the compounds were evaluated according to BSP test. The BSP test is a method in which BSP (sulfobromophthalein sodium), a dye known to be quickly metabolized in and excreted from the liver, is intravenously injected into animals and, after a definite period of time, the blood is taken out to measure the amount of BSP remaining in the plasma. In case the animals are suffering from the lever damage, the dye will remain, according to the degree of the damage, at the stage where a major portion of BSP metabolized and excreted in the case of normal animals.
# Five groups of rats (Spraque Dawley strain) were treated as follows:
# Group A: The rats were orally administered with 100 mg/kg of thioacetamide,at 3 days intervals for 36 days (12 times of the administration), then were submitted for 10 days to a normal diet.
# Group B: The rats were orally administered with 100 mg/kg of thioacetamide at 3 days intervals for 36 days (12 times of the administration), then were submitted for 10 days to the normal diet + 0.2% of compound 4.
# Group C: The rats were orally administered with 100 mg/kg of thioacetamide at 3 days intervals for 36 days (12 times of the administration), then were submitted for 10 days to the normal diet + 0.2% of compound 2.
# Group D: The rats were orally administered with 100 mg/kg of thioacetamide at 3 days intervals for 36 days (12 times of the administration), then were submitted for 10 days to the normal diet + 0.2% of anethol trithion.
# Group E: The rats were submitted to the normal diet as the control.
# Five rats were sacrificed from each group at appropriate intervals for BSP (sulfobromophthalein) test, the results of which were shown as amounts (mg) of BSP remaining in 1 dl of plasma.
smiles,measurement,setting,value
"NC(=O)CCCCC1CCSS1 (centres unmarked) [Thioctic acid amide, reference compound]",Liver damage index,[1],4.8
same,p-GPT (plasma glutamic-pyruvic transaminase activity),[1],763 Karmen units
"CCOC(=O)C(C(=O)OCC)=C1SCC(OC(C)=O)S1 (centres unmarked) [Compound 5, Diethyl 4-acetoxy-1,3-dithiolan-2-ylidene malonate]",Liver damage index,[1],1.2
same,p-GPT (plasma glutamic-pyruvic transaminase activity),[1],106 Karmen units
"CSCC[C@H](N)C(=O)O [Methionine, reference compound]",Total lipid,"[2]; 250 mg/kg oral, 10 days",156.8 ± 23.8 mg/g-liver
same,Triglyceride,"[2]; 250 mg/kg oral, 10 days",42.7 ± 7.2 mg/g-liver
same,therapeutic effect on fatty liver (in words),[2]; 50 or 250 mg/kg oral,hardly exhibited a therapeutic effect
same,Degree of fatty liver (histopathological examination),"[2]; dose not printed in Table 8, one symbol per animal",± ± ++ ++ ++ + +
same,Triglyceride,"[3]; 250 mg/kg oral, simultaneous with ethionine (0 hr)",10.8 ± 0.88 mg/g-liver
"CCOC(=O)C(C(=O)OCC)=C1SCC(OC(=O)CC)S1 (centres unmarked) [Compound 6, Diethyl 4-propionyloxy-1,3-dithiolan-2-ylidene malonate]",Liver damage index,[1],1.4
same,p-GPT (plasma glutamic-pyruvic transaminase activity),[1],210 Karmen units
"CCCOC(=O)C(C(=O)OCCC)=C1SCC(OC(C)=O)S1 (centres unmarked) [Compound 9, Di-n-propyl-4-acetoxy-1,3-dithiolan-2-ylidene malonate]",Liver damage index,[1],0.8
same,p-GPT (plasma glutamic-pyruvic transaminase activity),[1],102 Karmen units
"CC(C)COC(=O)C(C(=O)OCC(C)C)=C1SCC(O)S1 (centres unmarked) [Compound 3, Diisobutyl 4-hydroxy-1,3-dithiolan-2-ylidene malonate]",Liver damage index,[1],0.3
same,p-GPT (plasma glutamic-pyruvic transaminase activity),[1],52 Karmen units
"CC(=O)OC1CSC(=C(C(=O)OC(C)C)C(=O)OC(C)C)S1 (centres unmarked) [Compound 7, Diisopropyl 4-acetoxy-1,3-dithiolan-2-ylidene malonate]",Liver damage index,[1],0.4
same,p-GPT (plasma glutamic-pyruvic transaminase activity),[1],80 Karmen units
"COc1ccc(-c2cc(=S)ss2)cc1 [Anethol trithion, reference compound]",Excretion of biliary salt,[4]; 1 hour after treatment,108 ± 12
same,Excretion of biliary salt,[4]; 2 hours after treatment,89 ± 11
same,Excretion of biliary salt,[4]; 3 hours after treatment,66 ± 3.8
same,Excretion of biliary salt,[4]; 4 hours after treatment,47 ± 3.0
same,Excretion of biliary salt,[4]; 5 hours after treatment,3.3 ± 4.0
same,Liver damage index,[1],1.6
same,p-GPT (plasma glutamic-pyruvic transaminase activity),[1],38 Karmen units
same,Bile flow,bile flow; 1 hour after treatment,114 ± 15
same,Bile flow,bile flow; 2 hours after treatment,114 ± 15
same,Bile flow,bile flow; 3 hours after treatment,102 ± 11
same,Bile flow,bile flow; 4 hours after treatment,95 ± 7.7
same,Quantity of total excreted bile relative to control,bile flow; 5 hours after administration,1.10 times
same,Bile flow,bile flow; 5 hours after treatment,86 ± 6.6
same,Triglyceride in liver,[5],9.2 ± 1.5 mg/g
same,p-GPT,[5],106 ± 30 Karmen unit
same,BSP (residual quantity),[6],19.3 ± 4.6
same,BSP remaining in plasma,[7]; 2 days,9.7 ± 4.1 mg/dL
same,BSP remaining in plasma,[7]; 5 days,7.3 ± 3.4 mg/dL
same,BSP remaining in plasma,[7]; 10 days,0.9 ± 0.1 mg/dL
"CCC(=O)OC1CSC(=C(C(=O)OC(C)C)C(=O)OC(C)C)S1 (centres unmarked) [Compound 8, Diisopropyl 4-propionyloxy-1,3-dithiolan-2-ylidene malonate]",Liver damage index,[1],0.6
same,p-GPT (plasma glutamic-pyruvic transaminase activity),[1],62 Karmen units
"ClC(Cl)(Cl)Cl [Carbon tetrachloride, reference compound]",Liver damage index,[1],5.2
same,p-GPT (plasma glutamic-pyruvic transaminase activity),[1],"> 1,000 Karmen units"
"CCSCC[C@H](N)C(=O)O [Ethionine, reference compound]",Triglyceride,"[3]; ethionine alone (positive control), 200 mg/kg i.p.",15.6 ± 1.34 mg/g-liver

# Source: patent publication US4080466A, “Pharmaceutical compositions containing 4-hydroxyl-1,3-dithiolan-2-ylidene malonates” (Nihon Nohyaku Co., Ltd., priority 1976, dated 1978)
